Experimental data taken from patent US6376670B1, “Quinoline-indole antimicrobial agents, uses and compositions related thereto” (Sepracor Inc., priority 1997, dated 2002).
Like-named read-outs stand apart in the source and are kept apart here.

Key:
Experiment in all cases: Determination of MIC values (BHI broth, 96 well microtiter plate)
Format in all cases: cell-based
Streptococcus pneumoniae = conditions: BHI broth; for MIC: Streptococcus pneumoniae, read-out: MIC S. pneu
Protocol: (§1) Stock solutions of compounds are prepared with a concentration of 10 mg/mL. These solutions are then diluted 1:4 to give a concentration of 2.5 mg/mL. The compounds are then serially diluted 1:2 for 6 iterations. The concentrations made for each compound are 2.5, 1.25, 0.625, 0.3125, 0.156, 0.078, and 0.039 mg/mL. A control sample (no compound) is run along with each compound tested. All dilutions are made in DMSO.
(§2) All wells of a 96 well microtiter plate are filled with 100 μL of BHI (Brain-Heart Infusion) broth. Columns on the plate are labeled 1-12, and rows are labeled A-H. Each column of wells is used to test one series of diluted compounds. Into each well of 100 μL of BHI broth, 1 μL of diluted compound is placed for a 1:100 dilution. This makes the final concentration of each drug series 25, 12.5, 6.25, 3.125, 1.56, 0.78, 0.39, and 0 μg/mL.
(§3) Test Organism: A sterile 15 mL screw cap tube is filled wth 3 mL of BHI broth. Next, 2-3 colonies of test organism are inoculated into the tube. The tube is then incubated at 37° C. in a CO2 (approx. 7%) atmosphere jar. The organisms are allowed to grow to the density of a 0.5 McFarland standard (10^8 cells/mL). The organism is then inoculated into each well of the microtiter plate containing the diluted compounds to be tested for MIC. The inoculum is 1 μL in volume and represents 10^5 to 10^6 cells/mL.
(§4) After inoculation the plates are covered and incubated at 37° C. and approx. 7-10% CO2 atmosphere overnight (about 16 hours). The plates are then observed for growth, the well with the lowest concentration of drug and no observable growth represents the well determining the MIC.

[1] = test system: methicillin-resistant Staphylococcus aureus (MRSA); conditions: BHI broth; for MIC: Staphylococcus aureus, read-out: MIC MRSA
Protocol: as §1, §2, §3, §4

[2] = test system: vancomycin-resistant Enterococcus spp. (VRE); conditions: BHI broth; for MIC: Enterococcus, VRE, read-out: MIC VREF
Protocol: as §1, §2, §3, §4

[3] = MRSA, 16 h, 37° C., about 16 hours
[4] = 37° C., overnight (about 16 hours)
[5] = MRSA, 16 h, 37° C., overnight (about 16 hours)
[6] = 16 h, 37° C., overnight (about 16 hours)

Row | Structure (SMILES) | MIC [1, 5] [mg/L] | MIC [2, 6] [mg/L] | also measured
1 | NCCNC(=O)c1cc(-c2c[nH]c3ccc(Br)cc23)nc2ccc(C#CCN3CCSCC3)cc12 [Example 525] |  |  | MIC (Streptococcus pneumoniae; 37° C., about 16 hours): < 7 mg/L; MIC [1, 3]: < 7 mg/L; MIC ([2]; 16 h, 37° C., about 16 hours): < 7 mg/L
2 | NCCNC(=O)c1cc(-c2c[nH]c3ccc(Cl)cc23)nc2ccc(Br)cc12 [Example 313] |  |  | MIC (Streptococcus pneumoniae; S. pneu, overnight 37° C.): < 7 mg/L; MIC ([1]; MRSA, overnight 37° C.): < 7 mg/L; MIC ([2]; VREF, overnight 37° C.): < 7 mg/L
3 | OCc1[nH]c2ccccc2c1-c1cc(Cl)c2ccccc2n1 [Example 459] |  |  | MIC (Streptococcus pneumoniae; 37° C., about 16 hours): > 25 mg/L; MIC [1, 3]: > 25 mg/L; MIC ([2]; 16 h, 37° C., about 16 hours): > 25 mg/L
4 | Cc1[nH]c2ccc(Cl)cc2c1-c1ccc2cc(Cl)ccc2n1 [Example 384] |  |  | MIC (Streptococcus pneumoniae; S. pneu, overnight 37° C.): < 7 mg/L; MIC ([1]; MRSA, overnight 37° C.): < 7 mg/L; MIC ([2]; VREF, overnight 37° C.): > 25 mg/L
5 | OCc1cc(-c2c[nH]c3ccc(Br)cc23)nc2ccc(Cl)cc12 [Example 455] |  |  | MIC (Streptococcus pneumoniae; 37° C., about 16 hours): < 7 mg/L; MIC [1, 3]: < 7 mg/L; MIC VREF ([2]; 37° C., about 16 hours): <7 mg/L
6 | N#Cc1ccc2[nH]cc(-c3ccc4cc(Cl)ccc4n3)c2c1 [Example 292] |  |  | MIC S. pneu (Streptococcus pneumoniae; S. pneu, overnight 37° C.): > 25 mg/L; MIC MRSA ([1]; MRSA, overnight 37° C.): > 25 mg/L; MIC VREF ([2]; VREF, overnight 37° C.): >25 mg/L
7 | OCc1cc(-c2c[nH]c3ccc(Br)cc23)nc2cc(Cl)ccc12 [Example 492] |  |  | MIC S. pneu (Streptococcus pneumoniae; 37° C., about 16 hours): < 7 mg/L; MIC MRSA ([1]; 37° C., about 16 hours): < 7 mg/L; MIC VREF ([2]; 37° C., about 16 hours): <25 mg/L
8 | NCc1ccc(CNC(=O)c2cc(-c3c[nH]c4ccc(Br)cc34)nc3cc(Cl)ccc23)cc1 [Example 142] | < 7 | < 7 | MIC (Streptococcus pneumoniae; [4]): < 7 mg/L
9 | NCCNC(=O)c1cc(-c2c[nH]c3ccc(Cl)cc23)nc2cc(Br)ccc12 [Example 312] |  |  | MIC (Streptococcus pneumoniae; S. pneu, overnight 37° C.): < 7 mg/L; MIC ([1]; MRSA, overnight 37° C.): < 7 mg/L; MIC ([2]; VREF, overnight 37° C.): < 7 mg/L
10 | Clc1ccc2nc(-c3c[nH]c4ccc(OCc5ccccc5)cc34)ccc2c1 [Example 194] | < 7 | > 25 | MIC (Streptococcus pneumoniae; [4]): < 7 mg/L
11 | Cc1cccc2ccc(-c3c[nH]c4c(C)cccc34)nc12 [Example 471] |  |  | MIC (Streptococcus pneumoniae; 37° C., about 16 hours): < 7 mg/L; MIC ([2]; 16 h, 37° C., about 16 hours): > 25 mg/L
12 | Cn1cc(-c2ccc3cc(Cl)ccc3n2)c2cc(OCc3ccccc3)ccc21 [Example 213] |  |  | MIC ([1]; MRSA, overnight 37° C.): < 25 mg/L; MIC ([2]; VREF, overnight 37° C.): < 25 mg/L
13 | Cc1[nH]c2ccccc2c1-c1ccc2cc(Cl)ccc2n1 [Example 197] | < 7 | > 25 | 
14 | Cn1cc(-c2cc(C(=O)NCc3ccc(CN)cc3)c3cc(I)ccc3n2)c2cc(Br)ccc21 [Example 299] |  |  | MIC (Streptococcus pneumoniae; S. pneu, overnight 37° C.): < 7 mg/L
15 | O=C(c1cc(-c2c[nH]c3ccc(Br)cc23)nc2ccccc12)N1CCN(Cc2ccccc2)CC1 [Example 45] | > 25 | > 25 | 
16 | O=C(Nc1ccc(C(F)(F)F)cc1)N1CCN(C(=O)c2cc(-c3c[nH]c4ccc(Br)cc34)nc3ccccc23)CC1 [Example 65] | < 25 | < 7 | 
17 | CN(CC#Cc1ccc2nc(-c3c[nH]c4ccc(Br)cc34)cc(C(=O)NCc3ccc(CN)cc3)c2c1)C1CCCCC1 [Example 237] |  |  | MIC ([1]; MRSA, overnight 37° C.): < 7 mg/L; MIC ([2]; VREF, overnight 37° C.): < 7 mg/L
18 | NCc1ccc(CNC(=O)c2cc(-c3c[nH]c4ccccc34)nc3ccccc23)cc1 [compound 7] | > 25 | > 25 | 
19 | O=C(c1cc(-c2c[nH]c3ccc(Br)cc23)nc2ccc(I)cc12)N1CCNCC1 [Example 54] | < 7 | < 7 | 
20 | NCc1ccc(CNC(=O)c2cc(-c3c[nH]c4ccc(Br)cc34)nc3ccc(C#Cc4ccccc4)cc23)cc1 [Example 101] | < 7 | < 7 | 
21 | Cn1cc(-c2ccc3cc(Cl)ccc3n2)c2ccc(F)cc21 [Example 212] |  |  | MIC ([1]; MRSA, overnight 37° C.): > 25 mg/L; MIC ([2]; VREF, overnight 37° C.): > 25 mg/L
22 | N=C(N)NCCC[C@H](NC(=O)c1cc(-c2c[nH]c3ccc(Br)cc23)nc2ccccc12)C(=O)O [Example 88] | > 25 | > 25 | 
23 | N=C(N)NCCCC(NC(=O)c1cc(-c2c[nH]c3ccc(Br)cc23)nc2ccccc12)C(N)=O (stereo not shown) [Example 57] | < 25 | < 25 | 
24 | Cn1cc(-c2cc(C(=O)NCc3ccc(CN)cc3)c3ccccc3n2)c2ccccc21 [Example 12] | > 25 | > 25 | 
25 | Fc1cccc2[nH]cc(-c3ccc4cc(Cl)ccc4n3)c12 [Example 192] | > 25 | > 25 | 
26 | O=C(Nc1ccccc1C(F)(F)F)N1CCN(C(=O)c2cc(-c3c[nH]c4ccc(Br)cc34)nc3ccccc23)CC1 [Example 64] | > 25 | > 25 | 
27 | O=C(O)c1cc(-c2c[nH]c3ccc(Br)cc23)nc2ccc(C#CCN3CCNCC3)cc12 [Example 207] |  |  | MIC ([1]; MRSA, overnight 37° C.): > 25 mg/L; MIC ([2]; VREF, overnight 37° C.): < 25 mg/L

Row | Structure (SMILES) | MIC [1, 5] [mg/L] | MIC [2, 6] [mg/L] | also measured
28 | COC(=O)c1cc(-c2c[nH]c3ccc(Br)cc23)nc2ccccc12 [Example 24] | > 25 | > 25 | 
29 | NCc1ccc(CNC(=O)c2cc(-c3c[nH]c4ccc(Br)cc34)nc3cc(Cl)c(C#CCN4CCCCC4)cc23)cc1 [Example 268] |  |  | MIC ([1]; MRSA, overnight 37° C.): < 7 mg/L; MIC ([2]; VREF, overnight 37° C.): < 7 mg/L
30 | O=C(Nc1ccc(Cl)cc1C(F)(F)F)N1CCN(C(=O)c2cc(-c3c[nH]c4ccc(Br)cc34)nc3ccccc23)CC1 [Example 66] | > 25 | > 25 | 
31 | NCc1cccc(CNC(=O)c2cc(-c3c[nH]c4ccc(Br)cc34)nc3ccc(Br)cc23)c1 [Example 125] | < 7 | < 7 | 
32 | O=C(NCCCCC1CCCNC1)c1cc(-c2c[nH]c3ccc(Br)cc23)nc2ccccc12 (stereo not shown) [Example 49] | < 7 | < 7 | 
33 | NC1CCC(NC(=O)c2cc(-c3c[nH]c4ccc(Br)cc34)nc3ccccc23)CC1 (stereo not shown) [Example 106] | < 25 | < 25 | 
34 | NCCNC(=O)c1cc(-c2c[nH]c3ccc(Br)cc23)nc2ccccc12 [compound 2] | < 25 | < 25 | 
35 | O=C(Nc1ccccc1OC(F)(F)F)N1CCN(C(=O)c2cc(-c3c[nH]c4ccc(Br)cc34)nc3ccccc23)CC1 [Example 69] | > 25 | > 25 | 
36 | Oc1ccc2[nH]cc(-c3ccc4cc(Cl)ccc4n3)c2c1 [Example 205] |  |  | MIC ([1]; MRSA, overnight 37° C.): < 25 mg/L; MIC ([2]; VREF, overnight 37° C.): < 25 mg/L
37 | NCC(=O)NCc1ccc(CNC(=O)c2cc(-c3c[nH]c4ccc(Br)cc34)nc3ccccc23)cc1 [Example 71] | < 25 | > 25 | 
38 | Cc1ccc2c(c1)c(-c1ccc3cc(Cl)ccc3n1)cn2C [Example 216] |  |  | MIC ([1]; MRSA, overnight 37° C.): < 25 mg/L; MIC ([2]; VREF, overnight 37° C.): > 25 mg/L
39 | COc1cc2c(-c3ccc4cc(Cl)ccc4n3)cn(C)c2cc1OC [Example 222] |  |  | MIC ([1]; MRSA, overnight 37° C.): > 25 mg/L; MIC ([2]; VREF, overnight 37° C.): > 25 mg/L
40 | COc1cc2[nH]cc(-c3ccc4cc(Cl)ccc4n3)c2cc1OC [Example 206] |  |  | MIC ([1]; MRSA, overnight 37° C.): > 25 mg/L; MIC ([2]; VREF, overnight 37° C.): > 25 mg/L
41 | O=C(Nc1ccc(Cl)c(C(F)(F)F)c1)N1CCN(C(=O)c2cc(-c3c[nH]c4ccc(Br)cc34)nc3ccccc23)CC1 [Example 67] | < 7 | < 7 | 
42 | O=C(O)c1cc(-c2c[nH]c3ccccc23)nc2ccc(I)cc12 [Example 155] | > 25 | > 25 | 
43 | O=C(O)c1cc(-c2c[nH]c3ccc(Br)cc23)nc2ccccc12 [Example 27] | > 25 | > 25 | 
44 | COc1ccc2[nH]cc(-c3cc(C(=O)NCc4ccc(CN)cc4)c4ccccc4n3)c2c1 [Example 18] | > 25 | > 25 | 
45 | NCc1ccc(CNC(=O)c2cc(-c3csc4ccccc34)nc3ccccc23)cc1 [Example 52] | < 25 | < 25 | 
46 | NCc1ccc(CNC(=O)c2cc(-c3cccnc3)nc3ccc(Br)cc23)cc1 [Example 84] | < 7 | < 25 | 
47 | COC(=O)C(=O)N1CCN(C(=O)c2cc(-c3c[nH]c4ccc(Br)cc34)nc3ccccc23)CC1 [Example 29] | < 25 | < 25 | 
48 | Cn1cc(-c2ccc3cc(Cl)ccc3n2)c2cc(Cl)ccc21 [Example 180] | > 25 | > 25 | 
49 | Cc1ccc2[nH]cc(-c3cc(C(=O)NCc4ccc(CN)cc4)c4ccccc4n3)c2c1 [Example 17] | < 25 | > 25 | 
50 | O=C(NC1CCOC1=O)c1cc(-c2c[nH]c3ccc(Br)cc23)nc2ccccc12 (stereo not shown) [Example 34] | < 25 | < 25 | 
51 | NC(=O)C(Cc1ccc2ccccc2c1)NC(=O)c1cc(-c2c[nH]c3ccc(Cl)cc23)nc2ccccc12 (stereo not shown) [Example 147] | < 7 | < 7 | 
52 | NCc1ccc(CNC(=O)c2cc(-c3c[nH]c4ccc(Br)cc34)nc3ccc(Cl)cc23)cc1 [Example 121] | < 7 | < 7 | 
53 | O=[N+]([O-])c1ccc2[nH]cc(-c3ccc4ccccc4n3)c2c1 [Example 186] | > 25 | > 25 | 
